{"source": "patent US20200024246A1", "about": "“POGOSTONE DERIVATIVES AND METHODS OF USING THE SAME” (Hamyard Associates LLC, priority 2018, published 2020)", "key": {"[1]": {"test_system": "adult female Aedes aegypti", "assay": "Topical combination of Formula 13 with synthetic insecticides (FIGS. 6-9)", "assay_type": "in vivo", "procedure": "A low-dose concentration of Formula 13 (500 μg/mL) was applied in combination with chlorfenapyr (75 μg/mL), dibrom (10 μg/mL), thiamethoxam (100 μg/mL), and permethrin (2.5 μg/mL) to the pronotum of adult female Aedes aegypti in 0.2 μL of acetone. These concentrations were chosen as they produced little-to-no mortality at 24 hours after application. Knockdown (immobilization) was recorded at 1 hour after application and mortality was recorded at 24, 48, and 72 hours after initial application. These applications were run in parallel to a topical application of a combined mixture of 500 μg/mL Formula 13 and 75 μg/mL of chlorfenpayr to the pronotum of adult female mosquitoes. For this experiment, total of 25 mosquitoes were treated within each replicate, with a minimum of 3 replicates utilized for each treatment. Synergism was defined as the higher percentage mortality in the insecticidal combination of both Formula 13 and chlorfenapyr compared to each individual component applied by itself."}, "[2]": {"test_system": "Dandelion (Taraxacum officinale)", "assay": "Soil drench herbicidal test, dandelion", "assay_type": "in vivo", "settings": "40 mL of 0.5% soil drench, FIG. 12; words", "procedure": "(§1) Dandelion (Taraxacum officinale) seeds were obtained from the Department of Agronomy at Iowa State University. Individual seeds were sown for each pot (6″ wide×4.5″ deep) with approximately 800 mL of soil for each plan. Only plants that germinated were used for the study. Plants were treated 1-2 weeks post emergence. Plants were watered every 2-3 days as needed. Giant foxtail (Setaria faberi) seeds were obtained from the Department of Agronomy at Iowa State University. Three seeds were sown for each pot (6″ wide×4.5″ deep) with approximately 800 mL of soil for each plan. Only plants that germinated were used for the study. Plants were treated 1-2 weeks post emergence. Plants were watered every 2-3 days as needed.\nFormulations of the various active ingredients were created using the disclosed pogostone derivatives and Triton-X 100 to aid in the solvation of the active ingredient. Formulations consisted of 0.5% active ingredient by weight. […] 40 mL of formulation ([…] active ingredient) was applied to each pot containing approximately 3-5 plants per pot at 2-3 weeks after emergence. Observations were performed 3 days and 2 weeks after soil drench to determine the effects of the treatments on the various types and stages of plants. […]"}, "[3]": {"test_system": "Giant foxtail (Setaria faberi)", "assay": "Soil drench herbicidal test, foxtail", "assay_type": "in vivo", "settings": "for % mortality: Foxtail, Rep 1 and 2", "procedure": "as §1\nFormulations of the various active ingredients were created using the disclosed pogostone derivatives and Triton-X 100 to aid in the solvation of the active ingredient. Formulations consisted of 0.5% active ingredient by weight. […] 40 mL of formulation (either […] active ingredient) was applied to each pot containing approximately 3-5 plants per pot at 2-3 weeks after emergence. Observations were performed 3 days and 2 weeks after soil drench to determine the effects of the treatments on the various types and stages of plants. Phytotoxicity is reported as percentage of total plants treated compared to a control treatment that was exposed to a similar formulation (without the active monoterpenoid derivatives). Technical grade 2,4-dichlorophenoxyacetic acid (2,4-D) was used as the commercial comparison for phytotoxicity. For its solvation, potassium hydroxide was introduced at a 1:1 molar ratio with 2,4-D to ensure this molecule would adequately dissolve in water."}, "corn seeds": {"test_system": "corn seeds", "assay": "Seed treatment testing: survival/germination of treated corn seeds (FIG. 2B)", "assay_type": "in vivo", "settings": "seeds coated with compound; 1 week after introduction of larvae", "procedure": "Corn seeds used were a non-transgenic type strain of corn to prevent confounding results. Germination typically occurred between 2-4 days after moistening.\nSeed coating was accomplished by placing 20 g of corn seeds or soybeans into a container with approximately 1 mL of a 1:5 Elmer's glue:water solution with a small amount of Triton-X100™ (present 100 μL/5 mL). For solid compounds, 0.25 g of compound was subsequently introduced into the container. This mixture of seeds, Elmer's Glue/water/Triton-X 100™ solution, and active compound was mixed thoroughly until seeds were coated with the active ingredient.\nFor each treatment, 0.25 g of liquid compound was dissolved in 5 mL of hexane. 0.25 g of Hi-Sil 233 silica gel was introduced into this mixture of hexane and active ingredient. The solvent was blown-off using a rotary evaporator, allowing for the compound to adsorb to the silica gel. This 0.5 g of silica gel:active ingredient was then used as the solid material used for coating the seeds. The seeds were then coated with the same method used for solid compound.\nThree corn seeds coated in pogostone derivative treatments were germinated in small, 2-oz. […] Germination of seedlings was also recorded at the end of the assay by counting the total number of seeds that produced roots out of the 3 seeds in each container/replicate and recorded as total percentage germination. […]"}, "two-spotted spider mites": {"test_system": "two-spotted spider mites", "assay": "Leaf spray/dip test, spider mites (FIG. 4b)", "assay_type": "in vivo, two-spotted spider mite", "settings": "spider mites on dipped soybean leaves, 48 hours", "procedure": "Soybean leaves were removed from a previously uninfested plant and dipped in solution containing water, various concentrations of compounds to be screened, and 0.5% industrial emulsifier. Leaves were allowed to air dry for 30 minutes before the beginning of the assay to assure excess formulation was not present on the treated leaves. Ten two-spotted spider mites or ten soybean aphid adults were gently placed on the top surface of the treated leaves. A minimum of three replicates were performed for each formulation tested in this experiment. Mortality of aphids or spider mites was recorded at 48 hours after their introduction to treated leaves. All treatments were compared to a water+emulsifier control and a thymol+emulsifier control. Data was presented as the average mortality across all replicates along with the standard error of the mean."}, "[4]": {"test_system": "adult female Aedes aegypti mosquitoes", "assay": "Formula 13 after pre-treatment with detoxification enzyme inhibitors (FIG. 10)", "assay_type": "in vivo", "procedure": "Combinations of 2000 μg/mL Formula 13 and various detoxification enzyme inhibitors were applied to adult female mosquitoes in a volume of 0.2 μL to identify which detoxification pathway was most responsible for clearance of bioactive pogostone from the insect. A dose of 0.2 uL of either 1000 μg/mL of S,S,S-tributyl phosphorotrithioate (DEF) or 5000 μg/mL piperonyl butoxide (PBO) or 5000 μg/mL diethyl maleate (DEM) was applied 4 hours before a dose of 0.2 uL 2000 μg/mL of Formula 13 was applied to adult Aedes aegypti. […] The concentrations of inhibitors were chosen due to their inability to cause toxicity on their own at this application rate. The concentration of Formula 13 was chosen as the approximate LD25 of this compound against adult female Aedes aegypti mosquitoes. Combinations that caused statistically higher levels of mortality than pyrone 7 applied alone were considered informative. The goal of this exploration was to determine which processes might be most valuable in the detoxification of these derivatives."}}, "note": "Entries after “also recorded” stand apart in the source; their conditions may differ.", "data": [{"smiles": "CC(C)CCC(=O)c1c(O)c2ccccc2oc1=O", "note": "[Formula 13]", "values": [{"measurement": "mortality at 500 µg/mL", "setting": "[1]; Aedes aegypti, 24 h, read-out: 24-hr percentage mortality", "result": 11.2, "unit": "%"}, {"measurement": "percentage mortality at 24 hour", "setting": "[1]; chlorfenapyr 75 ug/mL, Formula 13 500 ug/mL, alone or combined, words", "result": "very low mortality"}, {"measurement": "phytotoxicity in dandelion", "setting": "[2]", "result": "little phytotoxicity"}, {"measurement": "phytotoxicity in foxtail", "setting": "[3]; 40 mL of 0.5% soil drench, FIG. 12, words", "result": "significant phytotoxicity"}, {"measurement": "% mortality", "setting": "[3]; 2 weeks after soil drench - 40 mL of 0.5% solution", "result": 100, "unit": "%"}, {"measurement": "% mortality", "setting": "[3]; 3 days after soil drench - 40 mL of 0.5% solution", "result": 50, "unit": "%"}, {"measurement": "phytotoxicity to treated corn seeds", "setting": "corn seeds", "result": "did not; also recorded: do not cause phytotoxicity"}, {"measurement": "mortality compared with thymol or control", "setting": "two-spotted spider mites", "result": "performed better than thymol"}, {"measurement": "toxicity of Formula 13 after DEF (inhibition of esterases)", "setting": "[4]; 1000 μg/mL DEF 4 hours before 2000 μg/mL Formula 13, 0.2 uL each", "result": "significantly increased the toxicity of Formula 13"}, {"measurement": "toxicity of Formula 13 after DEM (decreasing glutathione S-transferase activity)", "setting": "[4]; 5000 μg/mL DEM 4 hours before 2000 μg/mL Formula 13, 0.2 uL each", "result": "second-most important enzyme system"}, {"measurement": "toxicity of Formula 13 after PBO (inhibition of monooxygenases)", "setting": "[4]; 5000 μg/mL PBO 4 hours before 2000 μg/mL Formula 13, 0.2 uL each", "result": "most significant for increasing the toxicity of Formula 13"}, {"measurement": "approximate LD25 (concentration applied)", "setting": "[4]; 0.2 uL applied topically to adult female Aedes aegypti", "result": "~2000", "unit": "µg/mL"}]}]}
